Experimental data taken from patent publication US5317101A, “Tricyclic heterocycles” (Imperial Chemical Industries PLC, priority 1991, dated 1994).

Experiments:
[1] = target: T1, EP1 receptors (PGE2 -induced contractions of the ileum) (Cavia porcellus, UniProt A0A286XHJ6); test: Test (a): in-vitro guinea pig ileum assay, inhibition of PGE2-induced contractions; assay type: cell-based; conditions: PGE2-induced contraction, read-out: pA2 value (converted)
T1 construct: ileum was immersed in oxygenated Krebs solution; from tissue; host or cells: guinea pig ileum
T1 sequence (A0A286XHJ6 1-405): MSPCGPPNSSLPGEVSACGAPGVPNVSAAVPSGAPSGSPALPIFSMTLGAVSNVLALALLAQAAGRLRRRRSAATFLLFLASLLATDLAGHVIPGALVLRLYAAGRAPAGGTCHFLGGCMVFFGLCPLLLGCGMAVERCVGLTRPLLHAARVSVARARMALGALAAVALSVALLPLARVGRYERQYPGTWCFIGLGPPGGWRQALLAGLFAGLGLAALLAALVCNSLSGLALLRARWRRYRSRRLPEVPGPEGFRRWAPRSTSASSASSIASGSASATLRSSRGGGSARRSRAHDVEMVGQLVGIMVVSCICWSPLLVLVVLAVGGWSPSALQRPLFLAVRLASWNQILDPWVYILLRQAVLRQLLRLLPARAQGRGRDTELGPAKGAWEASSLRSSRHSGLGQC
Description: (a) an in-vitro guinea pig ileum assay which assesses the inhibitory properties of a test compound against PGE2 -induced contractions of the ileum; ileum was immersed in oxygenated Krebs solution containing indomethacin (4 μg/ml) and atropine (1 μM) and which was maintained at 37° C.; the ileum was subject to a tension of 1 g; a control dose response curve for PGE2 -induced contraction of the ileum was obtained; test compound (dissolved in dimethylsulphoxide) was added to the Krebs solution and a dose response curve for the PGE2 - induced contraction of the ileum in the presence of the test compound was obtained; the pA2 value for the test compound was calculated;
Prostanoid receptors and in particular receptors for PGE2 have been tentatively characterised by Kennedy et al. (Advances in Prostaglandin, Thromboxane and Leukotriene Research, 1983, 11, 327).

[2] = test system: abdominal constriction induced by the intraperitoneal administration of phenylbenzoquinone; test: Test (b): in-vivo assay in mice, PBQ-induced abdominal constriction; conditions: 100 mg/kg, oral dosing
Description: (b) an in-vivo assay in mice which assesses the inhibitory properties of a test compound against abdominal constriction induced by the intraperitoneal administration of phenylbenzoquinone (hereinafter PBQ) using the procedure disclosed in European Patent Application No. 0218077.

PGE2 receptors = conditions: guinea pig ileum or dog fundus; cited from earlier work

Q: For `O=C(O)c1ccc(CN2Cc3ccccc3Oc3ccc(Cl)cc32)s1` [5-(8-chloro-10,11-dihydrodibenzo[b,f][1,4]oxazepin-10-ylmethyl)thiophene-2-carboxylic acid], which Kb [1] is on record?
A: The Kb was 31.6 nM.

Q: With `O=C(O)c1ccc(CN2Cc3ccccc3Nc3ccccc32)s1` [5-(10,11-dihydrodibenzo[b,e][1,4]diazepin-10-ylmethyl)thiophene-2-carboxylic acid] as the compound, how does the Kb [1] read?
A: The Kb was 25.1 nM.

Q: And the “activity in Test (b)” value [2]?
A: The value was “significant activity”.

Q: Which “effect on PGE2 action” value (PGE2 receptors) does the source give for `CC(=O)NNC(=O)N1Cc2ccccc2Oc2ccc(Cl)cc21` [SC-19220] here?
A: Its value is “blocks the effect of PGE2”.
